This is an account of results in patent publication US11492361B2, “Compounds useful in HIV therapy” (GlaxoSmithKline Intellectual Property Development Limited, priority 2018, dated 2022).

Counter-ions that a name gives are not always drawn. Like-named read-outs stand apart in the source and are kept apart here.

The test system of assay [1] is Jurkat HIV-luciferase clones. The assay is described as follows: Jurkat latency reversal assay. The format is cell-based. As to conditions: Homo sapiens, Jurkat. A digest of the protocol: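 Three pooled Jurkat HIV-luciferase clones (C16, I15, N6; 5,000 cells/well, maintained with 500 nM EFV) exposed to 3-fold, 14-point titrations (10 μM to 2.1 pM, 0.5% DMSO) in duplicate for 48 h at 37 °C. Luciferase luminescence read; EC50 and maximal % activation versus vehicle from four-parameter logistic fit.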

Assay [2] concerns p100/p52. The assay is described as follows: p100/p52 Western blot (WB) assay. The conditions noted are these: Homo sapiens. The format is cell-based, human. As to the method: Cell cultures were set up to evaluate several SMACm compounds. Frozen PBMC cells from healthy donors were thawed and plated in 2 ml deepwell plates at 2×10^6 cells/ml. Serial dilutions of each compound was carried out as a 7 fold 1:6 dilution with the starting final dose of 1000 nM. Cells were then combined with compound and place at 37° for 24 hrs. The following day cells were pelleted and placed at −80 until lysis.
In preparation for cell lysis, the frozen cell pellets and an aliquot of NP40 Cell Lysis Buffer (Invitrogen, Part #FNN0021), as well as an aliquot of 10× Protease Inhibitor Cocktail (Sigma, Part #P-2714) are thawed on ice. Once thawed, the complete lysis buffer is prepared by adding 10% final volume PI cocktail to the NP40 buffer and then adding in sufficient volume of 0.1 M PMSF (Sigma, Part #93482) and 1 M DTT (Sigma, Part #43816) to create a final concentration of 1 mM each in the complete lysis buffer. Cell lysis is then carried out by resuspending each cell pellet in 30 μL per 10^6 cells then incubating on ice for 30 minutes with vigorous vortexing every 10 minutes. The lysed cells are then centrifuged at 13K RPM for 10 minutes at 4° C. in a refrigerated microcentrifuge. The supernatants (lysates) are then transferred into new microcentrifuge tubes and either stored at −80° or utilized immediately for protein concentration and Western blot analysis.
Protein concentration for each lysate is determined using a detergent compatible Bradford assay (Pierce, Part #23246) following the manufacturer's microplate instructions.
Capillary Western analysis were performed using the ProteinSimple Jess System. A total of 1 ug of cell lysate was prepared according to the provided protocol supplied by ProteinSimple. The primary antibody for p100/p52 (Cell, Signaling #3017) is diluted 1:10 for use in the Jess system. The 12-230 kDa Jess Seperation Module capillary cartridges Separation Module (SM-W004) is used in conjunction with the Anti-Rabbit Secondary NIR conjugate (043-819). The Separation module includes prefilled plates that the samples, primary and secondary antibodies, as well as protein normalization reagent and diluents are loaded onto to perform separation and detection. Once the assay has run, the data is then analyzed utilizing the Compass software provided by ProteinSimple.
Alternatively to capillary electrophoresis, traditional immunoblot assays were carried out, 10 μg of cell lysate was loaded per well into 4-20% Tris-Glycine SDS-PAGE gels. Protein from the SDS-PAGE gels were transferred to Turbo Midi PVDF Transfer Packs (BioRad) using the “Mixed MW” protocol for one Midi Format Gel (constant 2.5 A up to 25V, for 7 minutes) of the Trans-Blot Turbo Transfer System (Bio-Rad) with premade Trans-Blot per the manufacturer's instructions. After transfer, PVDF membranes were blocked in 5% bovine serum albumin (BSA) in 1×TBS (BioRad) with 0.1% Tween-20 for 1 hour at room temperature with gentle rocking. Primary antibodies were added and incubated overnight at 4° C. (anti-p100/p52, Cell Signaling Technology #3017, 1:1000; anti-Actin-HRP conjugate, Abcam #49900, 1:30,000). Following primary staining, the membrane washed three times with 1× Tris Buffered Saline (TBS)+0.1% TWEEN® 20 for 10 minutes each wash. After washing, the membrane was incubated in 5% BSA in 1×TBS+0.1% TWEEN® 20 with the appropriate secondary antibody for 2 hours at room temperature. Following secondary stain the membrane was washed twice for 10 minutes with 1×TBS+0.1% TWEEN® 20 followed by a 10-minute wash with 1×TBS. The membrane was then patted dry with filter paper and an image was captured of the undeveloped membrane on the ChemiDoc MP Imaging System using Image Lab software (BioRad). Sufficient ECL reagent (GE Healthcare) was used to cover the membrane and a series of images were taken starting with 0.001 second and doubling to tripling the exposure time until the luminescence from the developed membrane saturated the image. […]
(In western blotting, separated proteins are transferred to a membrane and probed.)

Assay [3] concerns NFKB2. Put plainly: NFkB2 gene induction. The format is cell-based, human. The conditions noted are these: Homo sapiens, CD4+ T, 24 h, read-out: NFkB2 gene induction EC50 (nM). As to the method: 5×10^5 normal donor CD4 T cells were treated for 24h with serial dilutions of compounds starting at 1.0 μM at 6 fold, 7 places. Total RNA was isolated using the RNEasy Mini kit (Qiagen) per the manufacturer's instructions. The following TaqMan primer probe sets were sourced from Applied Biosystems: Hs00174517_m1 (NFKB2) and Hs02800695 (HPRT1). TaqMan-based real-time PCR (Fast Virus 1-Step Master Mix, Applied Biosystems) was used to amplify host genes of interest. Gene expression was normalized to HPRT1 and comparative threshold cycle (CT) method (ΔΔCT) was used for relative fold change of gene expression as compared to untreated cells. The data was analyzed by QuantStudio3 Real-Time PCR System.

The mark [4] stands for this setting: Table 4 summary, read-out: Jurkat EC50.
The mark [5] stands for this setting: PBMC, 24 h, read-out: p100/p52 Western Blot (WB) EC50 (nM).

Consider `CN[C@@H](C)C(=O)N[C@H]1CCO[C@H]2CC(C)(C)C(C(=O)Nc3ccccc3SSc3ccccc3NC(=O)C3N4C(=O)[C@@H](NC(=O)[C@H](C)NC)CCO[C@H]4CC3(C)C)N2C1=O` (stereo partly shown) [Formula F, reference compound], for which the EC50 in assay [1] (48 h, Table 4 summary, read-out: Jurkat EC50) was approximately 1000 nM; in assay [2] (PBMC cells from healthy donors, 24 hrs, read-out: p100/p52 Western Blot (WB) EC50), more than 1000 nM.

For the compound `CN[C@@H](C)C(=O)N[C@H]1CCS[C@H]2CC(C)(C)[C@@H](C(=O)N[C@H]3c4ccccc4C[C@H]3OCC#CC#CCO[C@@H]3Cc4ccccc4[C@@H]3NC(=O)[C@H]3N4C(=O)[C@@H](NC(=O)[C@H](C)NC)CCS[C@H]4CC3(C)C)N2C1=O` [compound 13, (4S,4′S,7S,7′S,9aS,9a′S)-N,N′-((1S,1′S,2R,2′R)-(hexa-2,4-diyne-1,6-diylbis(oxy))bis(2,3-dihydro-1H-indene-2,1-diyl))bis(8,8-dimethyl-4-((S)-2-(methylamino)propanamido)-5-oxooctahydropyrrolo[2,1-b][1,3]thiazepine-7-carboxamide) dihydrochloride], the EC50 in assay [1] (48 h) came to 9.3 nM; in assay [1] (setting [4]) it was 9.3 nM; in assay [2] (setting [5]), 12.6 nM; in assay [3] it was 73 nM.

Consider `CN[C@@H](C)C(=O)N[C@H]1CCS[C@H]2CC(C)(C)[C@@H](C(=O)N[C@H]3c4ccccc4C[C@H]3OCCCCCCO[C@@H]3Cc4ccccc4[C@@H]3NC(=O)[C@H]3N4C(=O)[C@@H](NC(=O)[C@H](C)NC)CCS[C@H]4CC3(C)C)N2C1=O` [compound 20, (4S,4′S,7S,7′S,9aS,9a′S)-N,N′-((1S,1′S,2R,2′R)-(hexane-1,6-diylbis(oxy))bis(2,3-dihydro-1H-indene-2,1-diyl))bis(8,8-dimethyl-4-((S)-2-(methylamino)propanamido)-5-oxooctahydropyrrolo[2,1-b][1,3]thiazepine-7-carboxamide)], for which the EC50 was determined as 11.9 nM in assay [1] (48 h), 11.9 nM in assay [1] (setting [4]), 3.1 nM in assay [2] (setting [5]) and 75 nM in assay [3].

As to `CN[C@@H](C)C(=O)N[C@H]1CCS[C@H]2CC(C)(C)[C@@H](C(=O)N[C@H](COCC#CC#CCOC[C@@H](NC(=O)[C@H]3N4C(=O)[C@@H](NC(=O)[C@H](C)NC)CCS[C@H]4CC3(C)C)c3ccccc3)c3ccccc3)N2C1=O` [compound 33, (4S,4′S,7S,7′S,9aS,9a′S)-N,N′-((1S,1′S)-(hexa-2,4-diyne-1,6-diylbis(oxy))bis(1-phenylethane-2,1-diyl))bis(8,8-dimethyl-4-((S)-2-(methylamino)propanamido)-5-oxooctahydropyrrolo[2,1-b][1,3]thiazepine-7-carboxamide) dihydrochloride], the EC50 in assay [1] (48 h) stood at 5.5 nM; in assay [1] (setting [4]) it was 5.5 nM; in assay [2] (setting [5]), 158 nM; in assay [3] it was 46 nM.

Consider `CN[C@@H](C)C(=O)N[C@H]1CCS[C@H]2CC(C)(C)[C@@H](C(=O)N[C@H](COCCCCCCOC[C@@H](NC(=O)[C@H]3N4C(=O)[C@@H](NC(=O)[C@H](C)NC)CCS[C@H]4CC3(C)C)c3ccccc3)c3ccccc3)N2C1=O` [compound 40, (4S,4′S,7S,7′S,9aS,9a′S)-N,N′-((1S,1′S)-(hexane-1,6-diylbis(oxy))bis(1-phenylethane-2,1-diyl))bis(8,8-dimethyl-4-((S)-2-(methylamino)propanamido)-5-oxooctahydropyrrolo[2,1-b][1,3]thiazepine-7-carboxamide) dihydrochloride], for which the EC50 in assay [1] (48 h) is 6.1 nM; in assay [1] (setting [4]), 6.1 nM; in assay [2] (setting [5]) it was 1 nM; in assay [3] it was 11 nM.

Turning to `CN[C@@H](C)C(=O)N[C@H]1CCS[C@H]2CC(C)(C)[C@@H](C(=O)N[C@H](COCc3ccc(COC[C@@H](NC(=O)[C@H]4N5C(=O)[C@@H](NC(=O)[C@H](C)NC)CCS[C@H]5CC4(C)C)c4ccccc4)cc3)c3ccccc3)N2C1=O` [compound 42, (4S,4′S,7S,7′S,9aS,9a′S)-N,N′-((1S,1′S)-((1,4-phenylenebis(methylene))bis(oxy))bis(1-phenylethane-2,1-diyl))bis(8,8-dimethyl-4-((S)-2-(methylamino)propanamido)-5-oxooctahydropyrrolo[2,1-b][1,3]thiazepine-7-carboxamide) dihydrochloride], the EC50 in assay [1] (48 h) was found to be 6.8 nM; in assay [1] (setting [4]), 6.8 nM; in assay [2] (setting [5]), 3.1 nM; in assay [3], 3.6 nM.

Consider `CN[C@@H](C)C(=O)N[C@H]1CCS[C@H]2CC(C)(C)[C@@H](C(=O)N[C@H](COCCCCCCCCCCCCOC[C@@H](NC(=O)[C@H]3N4C(=O)[C@@H](NC(=O)[C@H](C)NC)CCS[C@H]4CC3(C)C)c3ccccc3)c3ccccc3)N2C1=O` [compound 61, (4S,4′S,7S,7′S,9aS,9a′S)-N,N′-((1S,1′S)-(dodecane-1,12-diylbis(oxy))bis(1-phenylethane-2,1-diyl))bis(8,8-dimethyl-4-((S)-2-(methylamino)propanamido)-5-oxooctahydropyrrolo[2,1-b][1,3]thiazepine-7-carboxamide)], for which, in assay [1] (48 h), the EC50 was determined as 11.8 nM.

In the case of `CN[C@@H](C)C(=O)N[C@H]1CCS[C@H]2CC(C)(C)[C@@H](C(=O)N[C@H](COCc3ccc4cc(COC[C@@H](NC(=O)[C@H]5N6C(=O)[C@@H](NC(=O)[C@H](C)NC)CCS[C@H]6CC5(C)C)c5ccccc5)ccc4c3)c3ccccc3)N2C1=O` [compound 62, (4S,4′S,7S,7′S,9aS,9a′S)-N,N′-((1S,1′S)-((naphthalene-2,6-diylbis(methylene))bis(oxy))bis(1-phenylethane-2,1-diyl))bis(8,8-dimethyl-4-((S)-2-(methylamino)propanamido)-5-oxooctahydropyrrolo[2,1-b][1,3]thiazepine-7-carboxamide)], the EC50 in assay [1] (48 h) is 4.2 nM.

On to `CN[C@@H](C)C(=O)N[C@H]1CCS[C@H]2CC(C)(C)[C@@H](C(=O)N[C@H]3c4ccccc4C[C@H]3OCCCCCCCCO[C@@H]3Cc4ccccc4[C@@H]3NC(=O)[C@H]3N4C(=O)[C@@H](NC(=O)[C@H](C)NC)CCS[C@H]4CC3(C)C)N2C1=O` [compound 63, (4S,4′S,7S,7′S,9aS,9a′S)-N,N′-((1S,1′S,2R,2′R)-(octane-1,8-diylbis(oxy))bis(2,3-dihydro-1H-indene-2,1-diyl))bis(8,8-dimethyl-4-((S)-2-(methylamino)propanamido)-5-oxooctahydropyrrolo[2,1-b][1,3]thiazepine-7-carboxamide) dihydrochloride], for which, in assay [1] (48 h), the EC50 was 11.6 nM.
